According to the METLIN SMRT retention time set (Domingo-Almenara et al. 2019):

Test: gradient 5% acetonitrile 3 min, to 50% in 2 min, to 85% in 15 min, held 3 min, 100 µL/min
Details: column: Zorbax Extend-C18 2.1 x 50 mm; eluents: water / acetonitrile, 0.1% formic acid
Procedure, shortened: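 In both positive and negative ionization mode, a quadrupole time-of-flight mass spectrometer coupled to HPLC analyzed pure standards run in mixtures of ~100 molecules. The Zorbax Extend-C18 column (2.1 × 50 mm, 1.8 μm) was operated at 100 μL/min with water and acetonitrile, each containing 0.1% formic acid. The dead volume was 40 μL and the dwell volume 900 μL. Retention time came from adduct peaks that were computationally picked and individually inspected by hand.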

| SMILES | RP-LC retention time |
| --- | --- |
| O=C(O)c1ccccc1-n1c2ccccc2c2ccccc21 | 1050 s |
| O=C(O)CNS(=O)(=O)c1ccc(Cl)c(-c2nnc(-c3ccccc3)o2)c1 | 766 s |
| CCS(=O)(=O)N1CC(=O)N(c2ccccc2C)C(C)(C(=O)NCc2ccccc2)C1 (stereo unspecified) | 802 s |
| CCn1c(=O)n(CCN2CCOCC2)c(=O)c2cnc(-c3ccc(Cl)cc3)nc21 | 709 s |
| CCCN1C(=O)CCc2c(C)nc(-c3ccc(C)cc3)nc21 | 1150 s |
| CC(=O)c1ccc(N2CCN(C(=O)Cn3ccc4ccc(-c5nnc(C)o5)cc43)CC2)cc1 | 764 s |
| CCn1ccc2oc(C)c(C(=O)NCc3cccc(F)c3)c2c1=O | 947 s |
| Cc1ccc(-n2ccnc2SCc2nc(-c3ccc(Br)cc3)no2)cc1 | 1090 s |
| CC1CCCCC12NCCN=C2NCc1ccc(F)cc1 (stereo unspecified) | 603 s |
| COc1ccc(-c2nnc(-c3ccc(OC)c(S(=O)(=O)N4CCC(C)CC4)c3)o2)cc1OC | 990 s |
| CC1CN2C=NC(N3CCN(C(=O)Nc4ccccc4C(F)(F)F)CC3)=CC2=N1 (stereo unspecified) | 616 s |
| Cc1ccc(C)c(NS(=O)(=O)c2cc(-c3[nH]ncc3C(=O)N3CCCCC3)oc2C)c1 | 799 s |
| COC(=O)c1ccccc1NC(=O)Cc1csc(Nc2ccccn2)n1 | 703 s |
| O=C(NC1CC1)C1CCCN(C(=O)c2ccccc2F)C1 (stereo unspecified) | 634 s |
| Cc1cc(=O)n(CC(=O)NCCn2nc(-c3ccc(F)cc3)ccc2=O)cn1 | 603 s |
| COc1cc(-c2nnc(C)o2)ccc1C | 828 s |
| CCOc1cccc(-c2noc(CCn3nc(-c4ccc5c(c4)OCO5)ccc3=O)n2)c1 | 978 s |
| CCc1noc([C@@H]2CC(F)(F)CN2C(=O)CCc2c(C)noc2C)n1 | 775 s |
| CCCC(=O)Nc1ccc(CCc2nc3ccc(C(=O)NC4CCCC4)cc3[nH]2)cc1 | 650 s |
| CC(=O)N1CCc2cc(N3CC(C(=O)Nc4cc(F)ccc4F)CC3=O)ccc21 (stereo unspecified) | 712 s |
| O=C(Nc1ccccc1F)C1CCN(S(=O)(=O)c2cc(-c3noc(C4CCC4)n3)cs2)CC1 | 958 s |
| CCOc1ccc(NC(=O)CSc2nccc(N3CCN(c4cc(C)ccc4C)CC3)n2)cc1 | 928 s |

| SMILES | RP-LC retention time |
| --- | --- |
| COc1ccccc1CCC(=O)NCc1ccc2c(c1)ncn2C | 595 s |
| Cc1ccc(-n2nc(C(=O)N3CCN(c4ccccn4)CC3)c3c4ccccc4n(C)c3c2=O)cc1 | 705 s |
| CCN(CC)CCNC(=O)CN1N=C(c2ccc(Cl)cc2)CCC1=O | 625 s |
| COc1cccc(OCC(O)CN2CCN(c3ccc(F)cc3)CC2)c1 (stereo unspecified) | 687 s |
| CCOc1ccc(NC(=O)C2CCN(S(=O)(=O)c3ccc4c(c3)CCCC(=O)N4)CC2)cc1 | 816 s |
| CCSc1nnc(NC(=O)CN(C)c2nc3c(Cl)cccc3s2)s1 | 904 s |
| Cc1ccc(-c2cn3c(CC(=O)NC4CCCCC4)csc3n2)cc1C | 829 s |
| Cc1nc(C)c(-c2nnc(NC(=O)NCc3cccs3)o2)s1 | 672 s |
| C=C1C[C@H]2[C@@H]3CCC4=CC(=O)CC[C@@H]4[C@H]3CC[C@]2(C)[C@@]1(OC(C)=O)C(C)=O | 1160 s |
| CCn1cc(CC(=O)NC(C)C)c2cccnc21 | 595 s |
| CCN1c2ccc(F)cc2C(=O)NC12CCN(C(=O)c1cccc(F)c1)CC2 | 791 s |
| CCC1CN(C(=O)N2CCC(C(=O)NCCCN3CCOCC3)CC2)c2ccccc2O1 (stereo unspecified) | 632 s |
| COCC1CN(S(=O)(=O)c2cc(F)ccc2OC)CC12CCNCC2 (stereo unspecified) | 611 s |
| O=C(NCC(O)c1ccsc1)c1ccc2c(c1)OCO2 (stereo unspecified) | 652 s |
| O=C(Cc1ccc(Cl)cc1)Nc1nnc(SCc2nnc(-c3ccccc3)o2)s1 | 955 s |
| CCCc1c(C(=O)O)nnn1-c1ccc(OC)c(Cl)c1 | 773 s |
| c1ccc(-c2nc(-c3ccc(OC4CNC4)cc3)no2)cc1 | 686 s |
| CCOC(=O)c1ccc(NC(=O)C2C(=O)N(C)C3(C)CC2c2ccccc2O3)cc1 (stereo unspecified) | 1000 s |
| O=C(Cn1c(=O)c2cccn2c2ccc(F)cc21)NC1CCCC1 | 800 s |
| CC(C)CCn1nc2ccc(S(=O)(=O)N3CCOCC3)cn2c1=O | 801 s |
| COc1ccccc1C(=O)NC1(C(F)(F)F)C(=O)N(C2CCCC2)C(C)=C1C(C)=O (stereo unspecified) | 1000 s |
| Cc1cc(C)c2c(N3CCCC3)nc(C(=O)Nc3ccc4c(c3)OCO4)nc2n1 | 656 s |

| SMILES | RP-LC retention time |
| --- | --- |
| Cc1oc(C2CCN(S(=O)(=O)c3ccccc3F)CC2)nc1C(=O)N1CCCC1 | 886 s |
| CC(=O)N1CCc2sc(S(=O)(=O)N3CCN(c4ccc(C)cc4)CC3)cc2C1 | 926 s |
| CN(C)Cc1c(C(=O)NCCOc2ccc(C(=O)NO)cc2)oc2ccccc12 | 628 s |
| CCc1cc(C(=O)N2CCN(CC)CC2)nc2cc(-c3ccco3)nn12 | 616 s |
| COc1nccc(N2CCC(CC(=O)NCc3ccc(OC)c(OC)c3)CC2)n1 | 575 s |
| Cc1ccc(S(=O)(=O)Nc2cccc(-c3cn4ccccc4n3)c2)cc1[N+](=O)[O-] | 681 s |
| CC(=O)c1ccc(NC(=O)c2cc(C(F)(F)F)n(C)n2)cc1 | 871 s |
| O=C1NC(=O)c2cc(Nc3ccccc3)c(Nc3ccccc3)cc21 | 1040 s |
| CN(CCc1ccncc1)C(=O)C1CCN(c2cnn(Cc3ccccc3)c(=O)c2)CC1 | 612 s |
| O=C(NCCN1CCN(S(=O)(=O)c2ccc(C(F)(F)F)cc2)CC1)c1ccsc1 | 610 s |
| Cc1cc(Cl)ccc1S(=O)(=O)N1CC(c2nc(Cc3ccccc3)no2)C1 | 1140 s |
| O=C([C@@H]1C[C@H](Oc2ccccc2)CN1C(=O)c1ccco1)N1CCCC1 | 603 s |
| CCCN(CCC)c1ncc(NC(=O)c2ccc(Br)cc2)cc1C(=O)O | 766 s |
| COC(=O)CCc1sc(NC2CCCCC2)nc1-c1ccc(OC)cc1 | 856 s |
| CCc1ccc(C(C)NC(=O)c2cccc(C3CCCN(C(=O)NC)C3)c2)cc1 (stereo unspecified) | 888 s |
| Fc1ccc(-c2nnc(Cc3nc(-c4cccc(F)c4)no3)o2)cc1 | 990 s |
| O=C(NCc1ccc(Br)cc1)C1CCN(c2nnc(-c3ccccc3)o2)CC1 | 884 s |
| Cn1cnc(S(=O)(=O)N2CC(c3nc(-c4ccncc4)no3)C2)c1 | 590 s |
| Cc1noc2nc(C)n(CC(=O)Nc3ccccc3Br)c(=O)c12 | 766 s |
| O=C(c1cn2ccnc(-c3ccccc3)c2n1)N1CCN(C(=O)c2ccco2)CC1 | 686 s |
| CCS(=O)(=O)N1CC(=O)N(c2ccc(F)cc2C)C(C)(C(=O)NC2CCCC2)C1 (stereo unspecified) | 805 s |
| COc1ccc(-c2noc(N3CCC(C(=O)Nc4cc(C)on4)CC3)n2)cc1OC | 784 s |
